In ChEMBL document CHEMBL1765060, “Synthesis, characterization, and biological evaluation of novel diclofenac prodrugs” (J Med Chem, 2011):

Legend:
Rattus norvegicus [1] = experiment: Gastrointestinal toxicity in Wistar rat assessed as ulcer index at 100 mg/kg, po; format: organism-based; set-up: dose 100 mg/kg, route oral; details: in vivo
[2] = buffer, pH 7.4
[3] = buffer, pH 3
Rattus norvegicus [4] = experiment: Gastrointestinal toxicity in Wistar rat assessed as ulcer area of <1 mm diameter at 100 mg/kg, po; format: organism-based; set-up: dose 100 mg/kg, route oral; details: in vivo
[5] = Metabolic stability in rat plasma assessed as compound remaining after 120 mins by HPLC analysis; format: ADME, cell-free; details: read-out: Stability
[6] = Metabolic stability in rat liver microsomes assessed as compound remaining after 30 mins by HPLC analysis; format: ADME, Microsome; details: read-out: Stability
Rattus norvegicus [7] = experiment: Antiinflammatory activity in Wistar rat assessed as inhibition of carrageenan-induced paw edema at 100 mg/kg, po administered 1 hr before carrageenan challenge measured after 180 mins; format: functional; set-up: scale not given: the % may be the effect or the level left
[8] = Metabolic stability in rat liver microsomes assessed as compound remaining after 60 mins by HPLC analysis; format: ADME, Microsome; details: read-out: Stability
[9] = Aqueous solubility of the compound in acetate buffer at pH 5.5 by HPLC analysis
[10] = buffer, pH 9
[11] = buffer, pH 1
physchem [12] = details: octanol/0.2 M phosphate buffer, pH 7.4
[13] = Metabolic stability in rat plasma assessed as compound remaining after 60 mins by HPLC analysis; format: ADME, cell-free; details: read-out: Stability
physchem [14] = details: octanol/0.1 M citric acid buffer, pH 3
Rattus norvegicus [15] = experiment: Gastrointestinal toxicity in Wistar rat assessed as ulcer area of >3 mm diameter at 50 mg/kg, po; format: organism-based; set-up: dose 50 mg/kg, route oral; details: in vivo
Rattus norvegicus [16] = experiment: Gastrointestinal toxicity in Wistar rat assessed as ulcer area of <1 mm diameter at 50 mg/kg, po; format: organism-based; set-up: dose 50 mg/kg, route oral; details: in vivo
Rattus norvegicus [17] = experiment: Gastrointestinal toxicity in Wistar rat assessed as ulcer index at 50 mg/kg, po; format: organism-based; set-up: dose 50 mg/kg, route oral; details: in vivo
Rattus norvegicus [18] = experiment: Gastrointestinal toxicity in Wistar rat assessed as ulcer area of 1-3 mm diameter at 50 mg/kg, po; format: organism-based; set-up: dose 50 mg/kg, route oral; details: in vivo
Rattus norvegicus [19] = experiment: Antiinflammatory activity in Wistar rat assessed as inhibition of carrageenan-induced paw edema at 50 mg/kg, po administered 1 hr before carrageenan challenge measured after 180 mins; format: functional; set-up: scale not given: the % may be the effect or the level left
Rattus norvegicus [20] = experiment: Gastrointestinal toxicity in Wistar rat assessed as ulcer area of >3 mm diameter at 100 mg/kg, po; format: organism-based; set-up: dose 100 mg/kg, route oral; details: in vivo
Rattus norvegicus [21] = experiment: Gastrointestinal toxicity in Wistar rat assessed as ulcer area of 1-3 mm diameter at 100 mg/kg, po; format: organism-based; set-up: dose 100 mg/kg, route oral; details: in vivo

| solubility [2] | solubility [3] | remaining at 2 h [5] [%] | remaining at 0.5 h [6] [%] | remaining at 1 h [8] [%] | solubility [9] | solubility [10] | solubility [11] | logD (physchem [12]) | remaining at 1 h [13] [%] | logD (physchem [14]) | Compound | UI (Rattus norvegicus [1]) | Activity (Rattus norvegicus [4]) [%] | Activity (Rattus norvegicus [7]) [%] | other results |
| --- | --- | --- | --- | --- | --- | --- | --- | --- | --- | --- | --- | --- | --- | --- | --- |
| BLD | BLD | 0 | 0 | 0 | BLD | BLD | BLD | 4.57 | 0 | 4.33 | CC(=O)OCCOC(=O)Cc1ccccc1Nc1c(Cl)cccc1Cl | 8 | 100 | 47.51 | – |
| – | – | 69.4 | 84.4 | 88.8 | – | – | – | – | 86.2 | – | O=C([O-])Cc1ccccc1Nc1c(Cl)cccc1Cl.[Na+] [DICLOFENAC SODIUM] | – | – | – | Activity (Rattus norvegicus [15]): 6%; Activity (Rattus norvegicus [16]): 80%; UI (Rattus norvegicus [17]): 63; Activity (Rattus norvegicus [18]): 14%; Activity (Rattus norvegicus [19]): 49.17% |
| BLD | BLD | 0 | 2.2 | 1.2 | BLD | BLD | BLD | 2.46 | 0 | 3.9 | CC(C)OC(=O)OCOC(=O)Cc1ccccc1Nc1c(Cl)cccc1Cl | 40 | 91.4 | 40.88 | Activity (Rattus norvegicus [20]): 5.71%; Activity (Rattus norvegicus [21]): 2.86% |
| BLD | BLD | 0 | 2.5 | 0 | BLD | BLD | BLD | 3.72 | 0 | 4.08 | CC(C)(C)C(=O)OCOC(=O)Cc1ccccc1Nc1c(Cl)cccc1Cl | 6 | 100 | 56.33 | – |
